Measured values: article PMC5754413, “Mass balance, metabolic disposition, and pharmacokinetics of a single oral dose of regorafenib in healthy human subjects” (Cancer Chemotherapy and Pharmacology, 2017)
Values joined by “and” are separate entries in the source; they are usually repeats but may differ in a detail not shown here. Equal values may be shown once.

How the values were obtained:
[1] = Metabolite profiling in plasma by HPLC–LSC; format: in vivo, human; conditions: for Percent of total AUC(0–144) of radioactivity in plasma: based on HPLC–LSC, mean; for Occurrence in plasma: radiochromatography of plasma
Method: Blood and plasma: Blood samples (18.7 mL per each time point) were collected into nonbeaded lithium-heparinized tubes immediately pre-dose and at the following post-dose times: 0.5, 1, 1.5, 2, 2.5, 3, 4, 6, 9, 12, 16, 20, 24, 36, 48, 72, 96, 120, 144, 192, 240, and 288 h. For each sample, 1 mL of whole blood was stored at 4 °C for subsequent LSC and the remainder was processed for plasma. Individual 150 μL plasma samples for each time point were treated with formic acid (20 μL) and acetonitrile (450 μL). The samples were homogenized using a MS2 Minishaker® (IKA® Labortechnik, Staufen im Breisgau, Germany). The precipitated proteins were removed by centrifugation (5 min, 13,000 rpm, Biofuge). After concentrating the supernatant to about 80 μL, methanol (15 μL) was added. The individual samples were analyzed by HPLC with off-line radioactivity detection for metabolite profiling.
Pharmacokinetic outcome measures were generated by non-compartmental analysis of plasma concentration–time data using WinNonlin v4.1 (Pharsight Corporation) in conjunction with Kincalc v2.50 (Bayer AG). For individual subjects, primary outcome measures were maximum observed concentration (C max) and area under the concentration–time curve from time zero to infinity (AUC). […] The metabolite or regorafenib percentages were calculated by AUC(0–144)metabolite or regorafenib divided by AUC(0–144)radioactivity calculated from data obtained by HPLC–LSC analysis. Secondary outcomes were: time to C max (t max); apparent terminal elimination half-life (t ½); apparent volume of distribution during the terminal phase after extravascular administration (Vz/F); and total body clearance of drug calculated after extravascular administration (e.g., apparent oral clearance) (CL/F). AUC was estimated by the sum of partial areas: partial areas were calculated using the linear (if C i ≤ C i+1) or the logarithmic (if C i > C i+1) trapezoidal rules. The quality of the half-life calculation was assessed based on graphs showing the concentration–time profile. For reliable calculation of the half-life, at least three data points (concentration/time values) were used. The extrapolated portion of the AUC from the last measured data point C(t n) to infinity was calculated using the concentration C last,calc, which was calculated from the log-linear regression line used for half-life calculation rather than C(t n). In addition, appropriate pharmacokinetic parameters were derived from the total radioactivity-versus-time data in blood and plasma.
(§1) Due to the limited amount of radiocarbon associated with many of the samples, analyses were conducted using HPLC with fraction collection followed by off-line LSC. Samples were analyzed on a 150 × 3 mm Prodigy® ODS-3 100A, 3 µm column (Phenomenex, Aschaffenburg, Germany) protected by 8 × 3 mm Nucleosil® 100-3 C18 HD guard columns (Macherey–Nagel, Düren, Germany). Metabolites were separated with a gradient of aqueous potassium dihydrogen phosphate (1 g/L, pH 2.0, mobile phase A) versus acetonitrile (mobile phase B) at a flow rate of 0.5 mL/min (gradient: 0% B at 0 min, linear to 50% B at 10 min, linear to 60% B at 25 min, linear to 80% B at 26 min, plateau at 80% B to 30 min). The radiochemical profile of [^14C]regorafenib-derived radioactivity was determined for all urine samples, plasma extracts, and fecal homogenate extracts. Here, HPLC fractionation into 96-well plates was followed by off-line LSC (Wallac 1450 MicroBeta liquid scintillation analyzer) after adding 150 μL of scintillation cocktail to each well (Ultima-Flo™ AP, PerkinElmer; sampling rate: 10 s/well) using the Wallac 1450 Microbeta™ Plusliquid detector. Reconstructed radiochemical profiles were compiled from the resulting data.

human feces = assay: Incubation with human feces under anaerobic conditions; format: in vitro ADME; conditions: for Conversion to the parent drug on incubation in feces: 10 μM, 24 h, 37 °C, anaerobic, reduction of M-2, hydrolysis of M-7; for Stability in feces / toward gut flora: anaerobic conditions, ex vivo
Method: Under anaerobic conditions, a suspension of fresh human feces (about 0.5 g) in degassed water (final volume 5 mL) was treated with a solution of [^14C]-labelled metabolite M-2 or metabolite M-7 (1 mg/mL acetonitrile; final concentration: 10 μM). After incubation for 24 h at 37 °C, the incubation mixture was terminated by the addition of acetonitrile (2 mL). After centrifugation (5 min, 3000 rpm), the supernatant (25 μL) was directly subjected to HPLC with the respective off-line radioactivity detection. As negative controls, metabolites M-2 and M-7 were incubated in water for 24 h at 37 °C.

human hepatocytes = assay: In vitro metabolism of [14C]regorafenib in human hepatocytes; format: in vitro ADME; conditions: [14C]regorafenib 2 µM, 2 h
Method: Primary human hepatocytes were obtained from two male donors. […] Regorafenib was added from a 200 µM stock solution in acetonitrile, resulting in 1% final acetonitrile in the incubation. At 0 and 2 h, aliquots of the incubation mixture were removed and the incubation was terminated with acetonitrile to a final content of about 30% (v/v). Samples were analyzed directly or stored at − 20 °C until analysis. Analysis was performed by HPLC–liquid scintillation counting (HPLC–LSC) and HPLC–high-resolution mass spectrometry (HPLC–HRMS/MS).

[2] = set-up: method as in PMID 22421192, PMID 22568966; conditions: cited from earlier work; for Exposure relative to regorafenib after a single dose: plasma; for Secondary maximum of plasma concentration–time profile / Tertiary maximum of plasma concentration–time profile: steady state
[3] = set-up: method as in PMID 27734608; conditions: cited from earlier work
[4] = set-up: method as in PMID 24896071; conditions: co-administration of ketoconazole with a single 160 mg dose of regorafenib; cited from earlier work
[5] = Mass balance: urinary and fecal excretion of radioactivity and metabolite pattern in excreta; format: in vivo, human; conditions: individual values of the four subjects
Method: Urine: Urine samples were collected at 12-h intervals post-dose on Day 1 and then at 24-h intervals until 288 h post-dose. Urine was stored at 4 °C until it was divided into aliquots for LSC and subsequent metabolite profiling (aliquots were stored at − 20 °C).
Feces: Fecal samples were collected and homogenized in water on a daily basis until 12 days post-dose. Duplicate aliquots of the homogenates were taken for combustion with oxygen (in preparation for LSC), and separate aliquots were used for metabolite profiling.
Liquid samples: Duplicate aliquots of liquid samples were diluted with 1 mL distilled water, if necessary, and mixed with 10 mL Aquasafe 500 Plus scintillation fluid. Levels of radioactivity were measured by LSC (PerkinElmer 2100) with automatic quench correction by an external standard channel ratio method at 13 °C using Ultima Gold™ as the liquid scintillation cocktail. Lower limits of detection (LLOD) were 30 μg-Eq/L for plasma (sample volume 0.5 mL), 50 μg-Eq/L for whole blood (sample volume 0.3 mL), and 0.016 μg-Eq/g for urine (sample weight 1 g).
Fecal samples: Duplicate aliquots of fecal homogenate (about 0.3 g) were weighed into Combustocones® containing Combustopads® for combustion analysis. Samples were combusted using a Packard Tri-Carb 307 Automatic Sample Oxidizer. The resultant ^14CO2 generated was collected by absorption in Carbo-Sorb (8 mL) to which Permafluor E+ (10 mL) was added. Radioactivity was quantified using a liquid scintillation analyzer (PerkinElmer 2100), with automatic quench correction using an external standard method as urine sample analysis. Samples were allowed to stabilize with respect to heat and light, and each sample was analyzed for 5 min. Prior to calculation of individual results, a background count rate was determined and subtracted from each sample’s count rate. LOD was 0.05 μg-Eq/g (sample weight 0.3 g).
as §1

Row | SMILES | Percent of total AUC(0–144) of radioactivity in plasma [1] | Mean total exposure, AUC(0–144 h) ([1]; plasma, HPLC–LSC) | Stability in feces / toward gut flora (human feces) | Formation in human hepatocytes (human hepatocytes) | Occurrence in plasma [1] | further results
1 | CNC(=O)c1cc(Oc2ccc(NC(=O)Nc3ccc(Cl)c(C(F)(F)F)c3)c(F)c2)cc[n+]1[O-] [M-2] | 28.7% | 20.16 mg-Eq·h/L | not stable | identified |  | half-life ([1]; male, human, plasma, oral, 120 mg, read-out: Half-life of M-2, range between subjects): 11 to 33 h; Conversion to the parent drug on incubation in feces (human feces): quantitative; Exposure relative to regorafenib after a single dose [2]: signficantly lower exposure than regorafenib; Secondary maximum of plasma concentration–time profile [2]: 6 to 8 h; Tertiary maximum of plasma concentration–time profile [2]: ~24 h; Fraction unbound in plasma [3]: 0.188%; Decrease in mean AUC [4]: > 90%; Decrease in mean C max [4]: > 90%
2 | CNC(=O)c1cc(Oc2ccc(NC(=O)N(c3ccc(Cl)c(C(F)(F)F)c3)C3OC(C(=O)O)C(O)C(O)C3O)c(F)c2)cc[n+]1[O-] (stereo not shown) [M-8] |  |  | not stable | observed | only occasionally found as traces in plasma | Course of degradation on incubation with human feces (human feces): reduction of the N-oxide leading to M-7 proceeded much faster than cleavage of the N-glucuronide yielding M-2
3 | CNC(=O)c1cc(Oc2ccc(NC(=O)N(c3ccc(Cl)c(C(F)(F)F)c3)C3OC(C(=O)O)C(O)C(O)C3O)c(F)c2)ccn1 (stereo not shown) [M-7] | 3.1% | 2.43 mg-Eq·h/L | not stable | identified |  | C max, range between subjects ([1]; plasma, HPLC–LSC): 137–174 μg-Eq/L; Fecal excretion of M-7 in individual subjects [5]: 0.03 % of the dose and 0.3 % of the dose and about 6.0 % of the dose and 13.7 % of the dose and about 14 % of the dose; Conversion to the parent drug on incubation in feces (human feces): < 10%
4 | O=C(Nc1ccc(Cl)c(C(F)(F)F)c1)Nc1ccc(Oc2ccnc(C(=O)O)c2)cc1F [M-6] |  |  |  | identified |  | 
5 | O=C(Nc1ccc(Cl)c(C(F)(F)F)c1)Nc1ccc(Oc2ccnc(C(=O)NCO)c2)cc1F [M-3] |  |  |  | identified | only occasionally found as traces in plasma | 
6 | NC(=O)c1cc(Oc2ccc(NC(=O)Nc3ccc(Cl)c(C(F)(F)F)c3)c(F)c2)ccn1 [M-4] |  |  |  | identified | only occasionally found as traces in plasma | 
7 | NC(=O)c1cc(Oc2ccc(NC(=O)Nc3ccc(Cl)c(C(F)(F)F)c3)c(F)c2)cc[n+]1[O-] [M-5] | 6.3% | 2.00 mg-Eq·h/L |  | observed |  | Terminal half-life (t 1/2) [2]: about 60 h; Exposure relative to regorafenib after a single dose [2]: signficantly lower exposure than regorafenib; Secondary maximum of plasma concentration–time profile [2]: 6 to 8 h; Tertiary maximum of plasma concentration–time profile [2]: ~24 h; Fraction unbound in plasma [3]: 0.053%; Decrease in mean AUC [4]: > 90%; Decrease in mean C max [4]: > 90%
8 | O=C(Nc1ccc(Cl)c(C(F)(F)F)c1)Nc1ccc(Oc2cc[n+]([O-])c(C(=O)NCO)c2)cc1F [M-1] |  |  |  | observed | only occasionally found as traces in plasma | 
